# According to US12612395B2, “Rocaglate derivatives and uses thereof” (TRUSTEES OF BOSTON UNIVERSITY, priority 2023, dated 2026):
# Where two headings read alike, the source gives them in different places.
# Key:
# DDX3X = molecular target: T1, DDX3X (Homo sapiens, UniProt O00571); assay: PISA assay in GBM0308 cell lysates, DDX3X; format: binding; details: GBM0308 lysate, compound 10 μM, AMP-PNP and (AG)8 RNA added
# T1 construct: endogenous in cells; host or cells: GBM0308 glioblastoma stem cells (lysate)
# Description: (§1) Derivatization-free target identification using a modified proteome integral solubility alteration (PISA) assay. The inventors next pursued proteome-wide target identification to better understand the target profiles of CSC-selective rocaglates. To enable cross-compound comparisons of target engagement, the inventors opted to use the Proteome Integral Solubility Alteration (PISA) assay,^29 a derivative of the mass spectrometry-based Cellular Thermal Shift Assay (MS-CETSA). In MS-CETSA,^30,31 target engagement is inferred through proteome-wide analysis of compound-induced changes to protein thermal stability; proteins with a shift in their half-maximal thermal denaturation temperature upon compound treatment are flagged as potential targets. The PISA assay obviates the need for MS-CETSA-derived thermal denaturation curves through curve integration by pooling of individual temperature points into a single “integral” sample for each treatment condition, thereby increasing throughput (FIG. 9). In contrast to MS-CETSA (which relies on curve comparisons), PISA determinations are performed by simply comparing soluble protein abundance levels between compound- and DMSO-treated samples. Importantly, protein fold-change measurements in PISA experiments generally scale with the thermal shift derived from CETSA experiments, and the magnitude of a thermal shift can inform on relative affinity between compounds and individual targets.^30,32-25 Maximal stability changes are protein-specific,^36 however, precluding estimations of preference for one target over another. Thus, PISA allows for simultaneous target profiling and comparisons of binding affinity between different compounds within a given target.
# (§2) Of note, we also detected stabilization of DDX3Y, a paralog which shares >90% sequence similarity with DDX3X.
# PISA assay in GBM0308 cell lysates: The PISA assay was performed in lysates as described by Gaetani and coworkers^S2 with slight modification. […] Lysate concentration was determined using a Pierce BCA Protein Assay Kit and adjusted to 2.0 mg/mL in lysis buffer. […]
# GBM0308 non-CSCs = assay: Dose-response killing of GBM non-CSCs (PI/Hoechst, Celigo cytometer); format: cell-based; details: 72 h; for Non-CSCs Max. observed efficacy (% dead cells): Table 1, up to 10 μM; for Emax: Homo sapiens
# Description: (§3) The inventors first evaluated a cohort of seven rocaglate translation inhibitors (1, 3-7, and 9, FIG. 1A and Table 1, compounds 2 and 8 were not tested due to unavailability). To assay for compounds that selectively affect GBM CSCs, the inventors employed the patient-derived tumor-initiating cell (TIC) cell line […] that forms neurospheres (consisting exclusively of tumor-initiating cells or CSCs) when cultured in neurobasal (NBE) medium. Upon exposure to serum and growth factor withdrawal, however, the cell line differentiates, acquires a flattened morphology, and forms a non-CSC population.^20 Thus, compounds can be tested in parallel to assess their effect on GBM CSCs vs. GBM non-CSCs as separate populations with a clean and robust response. This approach has been previously used to perform RNAi-based genetic screens to identify modulators of CSCs.^20 In this study, GBM0308 cells, cultured in stem cell conditions to form CSCs or in medium containing serum to induce differentiation into a non-CSC population, were treated in parallel with compounds at varying doses. Three days post-treatment, propidium iodide (PI) and Hoechst staining were performed and quantified using a Celigo image cytometer. Hoechst dye stained all […] nucleated cells, while PI exclusively stained dead cells. Cell viability and the percentage of cell death were then determined.
# (§4) Cell Culture: Glioblastoma stem cell lines GBM0308, BT145, and BT112 were cultured in neurobasal (NBE medium) containing N-2 and B-27 supplements, EGF, bFGF, L-glutamine, and Penicillin-Streptomycin), as described previously.^19 Adherent GBM cells were cultured in serum-containing DMEM media (Invitrogen) supplemented with 10% fetal bovine serum (Corning Cellgro™). Cells were incubated at 37° C. and 5% CO2 to allow neurosphere formation. For seeding and subculturing, the neurospheres were gently trypsinized with 0.025% trypsin to form a single-cell suspension.
# (§5) Dose-Response Testing in GBM Cells: Briefly, on day 1, cells were seeded in triplicate. For CSCs, 1500 cells/well were plated in a low attachment 96-well plate with NBE media and incubated for 3 days at 37° C. and 5% CO2 to allow the formation of neurospheres. For non-CSCs, 3000 cells/well were plated in a 96-well plate with DMEM media supplemented with 10% FBS. Similarly, the assay plates were also incubated for the same duration. Compound treatments started on day 4. Each compound was resuspended in DMSO and then diluted to different concentrations in media to a final concentration of DMSO less than 1%. The compounds were added at concentrations of 10, 3.3, 1.11, 0.37, 0.12, 0.041, 0.013, and 0.004 µM, respectively. DMSO-treated cells served as a control. After 72 h incubation with the compounds, fluorescent stains, propidium iodide, and Hoechst 33342 (Life Technologies, Carlsbad, CA), were used to stain the GBM cells to determine cell viability. A staining solution in 1×PBS was prepared by mixing PI and Hoechst 33342 to working concentrations of 2.5 μM and 20 μM, respectively. 20 μL of this staining solution was added per well, and plates were incubated at 37° C. and 5% CO2 for 60 min. After incubation, plates were read by Celigo imaging cytometer using an inbuilt Celigo application; Cell Viability (Dead+Total). For the viability measurement, the total number of neurospheres/cells and dead neurospheres/cells in each well were counted by the cytometer. The percentage of PI+ cells was normalized to DMSO and plotted against the drug concentration to calculate the EC50 with a four-parameter, variable-slope dose-response curve with an upper constraint of <100% dead cells and a lower constraint of =0% dead cells (GraphPad Prism v.10.0.0). For all dose response experiments, the experimental maximal efficacy (maximum observed % cell death) is reported. Relative EC50 values are reported for all compounds killing >50% of cells.
# GBM0308 CSCs = assay: Dose-response killing of GBM CSCs (PI/Hoechst, Celigo cytometer); format: cell-based; details: for CSCs Max. observed efficacy (% dead cells): up to 10 μM
# Description: as §3, §4, §5
# eIF4A paralogs (eIF4A1) = assay: PISA assay in GBM0308 cell lysates, eIF4A; format: binding, human; details: GBM0308 lysate, compound 10 μM, AMP-PNP and (AG)8 RNA added
# Description: as §1, §2
# PISA assay in GBM0308 cell lysates: The PISA assay was performed in lysates as described by Gaetani and coworkers^S2 with slight modification. Pelleted GBM0308 cells were resuspended in ice-cold lysis buffer (1×PBS pH 7.4, 2 mM MgCl2, 0.5 mM AMP-PNP, 1 μM (AG)8 RNA, HALT protease inhibitor cocktail EDTA-free) and subjected to three freeze-thaw cycles with liquid nitrogen to extract lysate proteins. Thawing was performed at room temperature until ˜80% thawed, then completed on ice. Lysate was clarified by centrifugation for 10 minutes at 20,000 RCF and 4° C., transferred to a fresh Eppendorf tube, then centrifuged again for 10 minutes at 20,000 RCF and 4° C. to ensure removal of debris. Lysate concentration was determined using a Pierce BCA Protein Assay Kit and adjusted to 2.0 mg/mL in lysis buffer. Lysate was mixed 1:1 with a 2× solution of test compound or DMSO in lysis buffer, gently aspirated to ensure proper mixing, and incubated at room temperature for 10 minutes. […]
# GBM0308 neurospheres = assay: Neurosphere formation assay (single neurosphere, PI/Hoechst); format: cell-based; details: 72 hours
# Description: To gain additional mechanistic insights into GBM cell death induced by (−)-20, the inventors conducted several functional assays. The inventors first derived a single neurosphere from GBM0308 cells cultured in stem cell conditions, which was treated with either DMSO or (−)-20 at varying doses for three days followed by staining with PI and Hoechst dyes and subsequent imaging. […] To capture the kinetics of apoptotic events, the inventors employed caspase 3/7 staining of GBM0308 neurospheres treated with either DMSO or (−)-20 and subsequently evaluated at three timepoints over a 48-hour period. […] (FIG. 5B).
# Neurosphere Formation Assays: Single neurospheres were generated by seeding GBM0308 cells (400 cells per well) in a 384-well ultra-low attachment round bottom microplate (Nexcelom Bioscience, ULA-384 U). The plates were then centrifuged at 300×g for 10 minutes to cluster cells at the bottom of the wells, followed by incubation at 37° C. and 5% CO2 for 4 days to allow the formation of single neurospheres and treated with either DMSO or drugs at concentrations of 3.3, 1.11, 0.37, 0.12, 0.041, 0.013, 0.004 μM. On Day 7, neurospheres were stained with propidium iodide and Hoechst, as described above. The “neurosphere 1+Mask” application was used to measure the fluorescent intensities of PI, using Celigo cytometer as described previously.^70
# [1] = Table 1, GBM0308 CSCs, 72 h treatment, relative EC50, given for compounds causing at least 50% cell death, read-out: CSCs EC50
# [2] = read-out: Non-CSC Max. observed efficacy (% dead cells), Table 7, cell line not given
# [3] = Homo sapiens, 72 h, read-out: CSC Max. observed efficacy (% dead cells), Table 7, cell line not given
# [4] = Homo sapiens, read-out: CSC EC50 (μM), Table 7, cell line not given
# [5] = Table 7, cell line not given, read-out: Non-CSC Max. observed efficacy (% dead cells)
# [6] = Homo sapiens, 72 h, Table 7, cell line not given, read-out: CSC Max. observed efficacy (% dead cells)
# [7] = Homo sapiens, Table 7, cell line not given, read-out: CSC EC50
# T1 sequence (O00571 whole entry): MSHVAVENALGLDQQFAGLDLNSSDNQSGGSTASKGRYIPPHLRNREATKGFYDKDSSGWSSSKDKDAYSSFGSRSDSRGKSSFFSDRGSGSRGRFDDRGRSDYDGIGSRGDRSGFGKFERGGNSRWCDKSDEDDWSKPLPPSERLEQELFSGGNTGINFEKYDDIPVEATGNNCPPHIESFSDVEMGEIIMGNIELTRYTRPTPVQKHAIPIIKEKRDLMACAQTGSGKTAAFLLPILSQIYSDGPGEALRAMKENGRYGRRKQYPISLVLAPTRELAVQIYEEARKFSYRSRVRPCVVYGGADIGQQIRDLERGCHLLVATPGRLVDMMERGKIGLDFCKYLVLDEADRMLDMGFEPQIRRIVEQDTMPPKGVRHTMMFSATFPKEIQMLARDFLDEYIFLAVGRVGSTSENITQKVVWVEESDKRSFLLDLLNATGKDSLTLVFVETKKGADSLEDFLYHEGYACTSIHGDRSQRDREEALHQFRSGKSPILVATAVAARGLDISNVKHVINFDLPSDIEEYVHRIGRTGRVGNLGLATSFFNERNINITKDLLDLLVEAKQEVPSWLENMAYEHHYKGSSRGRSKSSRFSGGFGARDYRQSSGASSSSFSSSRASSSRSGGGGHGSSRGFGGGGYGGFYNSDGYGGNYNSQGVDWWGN
molecule,measurement,setting,value
"rocaglamide A [(−)-1, reference compound]","thermal stabilization of DDX3X (PISA), in words",DDX3X,thermal stabilization
same,Non-CSCs Max. observed efficacy (% dead cells),GBM0308 non-CSCs; GBM0308 non-CSCs,31%
same,CSCs Max. observed efficacy (% dead cells),"GBM0308 CSCs; Table 1, GBM0308 CSCs, 72 h",84%
same,EC50,GBM0308 CSCs; [1],0.387 µM
same,"thermal stabilization of eIF4A paralogs (PISA), in words",eIF4A paralogs (eIF4A1),thermal stabilization
RK-33 [reference compound],concentration required to observe a noticeable effect on neurosphere size,GBM0308 neurospheres,> 3 µM
"COc1cc(OC)c2c(c1)O[C@@]1(c3ccc(Cl)cc3)[C@H](c3ccccc3)[C@@H](C(=O)NS(=O)(=O)N(C)C)[C@@H](O)[C@@]21O [ZW-12-31, (1R,2R,3S,3aR,8bS)-3a-(4-chlorophenyl)-N—(N,N-dimethylsulfamoyl)-1,8b-dihydroxy-6,8-dimethoxy-3-phenyl-2,3,3a,8b-tetrahydro-1H-cyclopenta[b]benzofuran-2-carboxamide]",Emax,GBM0308 non-CSCs; [2],25%
same,Emax,GBM0308 CSCs; [3],72%
same,EC50,GBM0308 CSCs; [4],0.693 µM
"COc1ccc([C@@]23Oc4cc(OC)cc(OC)c4[C@]2(O)[C@H](O)[C@H](C(=O)NS(=O)(=O)N(C)C)[C@H]3c2ccccc2)cc1 [(−)-16, (1R,2R,3S,3aR,8bS)—N—(N,N-dimethylsulfamoyl)-1,8b-dihydroxy-6,8-dimethoxy-3a-(4-methoxyphenyl)-3-phenyl-2,3,3a,8b-tetrahydro-1H-cyclopenta[b]benzofuran-2-carboxamide]",Emax,"GBM0308 non-CSCs; read-out: Non-CSCs Max. observed efficacy (% dead cells), Table 2, GBM0308 non-CSCs, highest tested concentration 10 μM",23%
same,EC50,"GBM0308 CSCs; Homo sapiens, 72 h, read-out: CSCs EC50 (μM), Table 2, GBM0308 CSCs, 72 h treatment, relative EC50",1 to 10 µM
same,Emax,"GBM0308 CSCs; Homo sapiens, 72 h, read-out: CSCs Max. observed efficacy (% dead cells), Table 2, GBM0308 CSCs, 72 h, highest tested concentration 10 μM",76%
same,EC50,"GBM0308 CSCs; read-out: CSCs EC50, Table 2, GBM0308 CSCs, 72 h treatment, relative EC50",1.73 µM
"COc1cc(OC)c2c(c1)O[C@@]1(c3ccc(Br)cc3)[C@H](c3ccccc3)[C@@H](C(=O)NS(=O)(=O)N(C)C)[C@@H](O)[C@@]21O (racemic) [BUCMD747 (rac), (1R,2R,3S,3aR,8bS)-3a-(4-bromophenyl)-N-(N,N-dimethylsulfamoyl)-1,8b-dihydroxy-6,8-dimethoxy-3-phenyl-2,3,3a,8b-tetrahydro-1H-cyclopenta[b]benzofuran-2-carboxamide]",Emax,GBM0308 non-CSCs; [5],27%
same,Emax,GBM0308 CSCs; [6],89%
same,EC50,GBM0308 CSCs; [7],0.453 µM
"CCN(CC)S(=O)(=O)NC(=O)[C@H]1[C@@H](O)[C@@]2(O)c3c(OC)cc(OC)cc3O[C@@]2(c2ccc(Br)cc2)[C@@H]1c1ccccc1 [ZW-12-35, (1R,2R,3S,3aR,8bS)-3a-(4-bromophenyl)-N—(N,N-diethylsulfamoyl)-1,8b-dihydroxy-6,8-dimethoxy-3-phenyl-2,3,3a,8b-tetrahydro-1H-cyclopenta[b]benzofuran-2-carboxamide]",Emax,GBM0308 non-CSCs; [2],16%
same,Emax,GBM0308 CSCs; [3],92%
same,EC50,GBM0308 CSCs; [4],1.18 µM
"methyl rocaglate [(−)-3, reference compound]",Non-CSCs Max. observed efficacy (% dead cells),GBM0308 non-CSCs; GBM0308 non-CSCs,23%
same,CSCs Max. observed efficacy (% dead cells),"GBM0308 CSCs; Table 1, GBM0308 CSCs, 72 h",75%
same,EC50,GBM0308 CSCs; [1],1.64 µM
"COc1cc(OC)c2c(c1)O[C@@]1(c3ccc(Br)cc3)[C@H](c3ccccc3)[C@@H](C(=O)NS(=O)(=O)N(C)C)[C@@H](O)[C@@]21O [BUCMD790 (—), (1R,2R,3S,3aR,8bS)-3a-(4-bromophenyl)-N-(N,N-dimethylsulfamoyl)-1,8b-dihydroxy-6,8-dimethoxy-3-phenyl-2,3,3a,8b-tetrahydro-1H-cyclopenta[b]benzofuran-2-carboxamide]",Emax,GBM0308 non-CSCs; [5],26%
same,Emax,GBM0308 CSCs; [6],93%
same,EC50,GBM0308 CSCs; [7],0.045 µM
